39 compounds from patent US9650369B2, “Anti-migration and anti-invasion thiazole analogs for treatment of cellular proliferative disease” (XAVIER UNIVERSITY OF LOUISIANA, priority 2012, dated 2017) can be followed below.

pIC50: −log10 of the molar value.

Series [1] in a line: antimigration efficacy of additional thiazole compounds (Table 3). The series is classed as cell-based. The settings on record: cell line not given; read-out: IC50 (anti-migration). The source says: (§1) The additional thiazole compounds were synthesized and tested for antimigration efficacy and cytotoxicity, with results shown in TABLE 3.
A short description of series [2]: cytotoxicity of additional thiazole compounds (Table 3). The conditions noted are these: cell line not given. Type of series: cell-based.
Source text: as §1

As to `CCn1c(-c2ccc(C)cc2C)csc1=NC(=O)c1ccccc1` [Compound 5l, N-(4-(2,4-Dimethylphenyl)-3-ethylthiazol-2(3H)-ylidene)benzamide], the pIC50 in series [1] is 5.25. For the same compound, the “Cytotoxicity (Survival at 1 μM)” value in series [2] was 141.8%.

As to `CCCn1c(-c2ccc(C)cc2C)csc1=NC(=O)c1ccccc1` [Compound 5m, N-(4-(2,4-Dimethylphenyl)-3-propylthiazol-2(3H)-ylidene)benzamide], the pIC50 in series [1] was 6.75. In addition, the “Cytotoxicity (Survival at 1 μM)” value in series [2] is 85.0%.

In the case of `CCCCn1c(-c2ccc(C)cc2C)csc1=NC(=O)c1ccccc1` [Compound 5n, N-(3-Butyl-4-(2,4-dimethylphenyl)thiazol-2(3H)-ylidene)benzamide], in series [1], the pIC50 is 6.48. Besides, the “Cytotoxicity (Survival at 1 μM)” value in series [2] is 70.4%.

`CCCCCCn1c(-c2ccc(C)cc2C)csc1=NC(=O)c1ccccc1` [Compound 5o, N-(4-(2,4-Dimethylphenyl)-3-hexylthiazol-2(3H)-ylidene)benzamide]: in series [1], the pIC50 was 7.06. In addition, the “Cytotoxicity (Survival at 1 μM)” value in series [2] came out at 90.0%.

With `CCCCCCCCCCCCn1c(-c2ccc(C)cc2C)csc1=NC(=O)c1ccccc1` [Compound 5p, N-(4-(2,4-Dimethylphenyl)-3-dodecylthiazol-2(3H)-ylidene)benzamide], in series [1], the pIC50 was 7.49. Further, the “Cytotoxicity (Survival at 1 μM)” value in series [2] stood at 109.5%.

For the compound `C=CCn1c(-c2ccc(C)cc2C)csc1=NC(=O)c1ccccc1` [Compound 5q, N-(3-Allyl-4-(2,4-dimethylphenyl)thiazol-2(3H)-ylidene)benzamide], the pIC50 in series [1] is 6.62. In addition, in series [2], the “Cytotoxicity (Survival at 1 μM)” value stood at 115.3%.

For the compound `C#CCn1c(-c2ccc(C)cc2C)csc1=NC(=O)c1ccccc1` [Compound 5r, N-(4-(2,4-Dimethylphenyl)-3-(prop-2-yn-1-yl)thiazol-2(3H)-ylidene)benzamide], in series [1], the pIC50 was 4.96. For the same compound, the “Cytotoxicity (Survival at 1 μM)” value in series [2] was 70.2%.

In the case of `C#CCN(C(=O)c1ccccc1)c1nc(-c2ccc(C)cc2C)cs1` [Compound 6, N-(4-(2,4-Dimethylphenyl)thiazol-2-yl)-N-(prop-2-yn-1-yl)benzamide], in series [2], the “Cytotoxicity (Survival at 1 μM)” value turned out to be 106.4%.

On to `CCN(C(=O)c1ccccc1)c1nc(-c2ccccc2)cs1` [Compound 7a, N-Ethyl-N-(4-phenylthiazol-2-yl)benzamide], for which the pIC50 in series [1] was 6.25. In addition, the “Cytotoxicity (Survival at 1 μM)” value in series [2] is given as 68.5%.

For the compound `CCCn1c(-c2ccccc2)csc1=NC(=O)c1ccccc1` [Compound 7b, N-(4-Phenyl-3-propylthiazol-2(3H)-ylidene)benzamide], the pIC50 in series [1] is 6.36. In addition, the “Cytotoxicity (Survival at 1 μM)” value in series [2] is listed as 100.0%.

Consider `C=CCn1c(-c2ccccc2)csc1=NC(=O)c1ccccc1` [Compound 7c, N-(3-Allyl-4-phenylthiazol-2(3H)-ylidene)benzamide], for which the pIC50 in series [1] is 7.61. For the same compound, in series [2], the “Cytotoxicity (Survival at 1 μM)” value is on record as 64.8%.

`C#CCn1c(-c2ccccc2)csc1=NC(=O)c1ccccc1` [Compound 7d, N-(4-Phenyl-3-(prop-2-yn-1-yl)thiazol-2(3H)-ylidene)benzamide]: in series [1], the pIC50 was 7.19. For the same compound, the “Cytotoxicity (Survival at 1 μM)” value in series [2] is recorded as 63.0%.

Take `CCn1c(-c2ccccc2)csc1=NC(=O)c1ccccc1` [Compound 8a, N-(4-phenyl-3-ethylthiazol-2(3H)-ylidene)benzamide]: the pIC50 in series [1] was 6.05. Besides, the “Cytotoxicity (Survival at 1 μM)” value in series [2] is given as 128.9%.

As for `CCCN(C(=O)c1ccccc1)c1nc(-c2ccccc2)cs1` [Compound 8b, N-(4-Phenylthiazol-2-yl)-N-propylbenzamide], the pIC50 in series [1] was 7.49. In addition, the “Cytotoxicity (Survival at 1 μM)” value in series [2] amounted to 116.0%.

For the compound `Cc1ccc(-c2csc(NS(=O)(=O)c3ccccc3)n2)c(C)c1` [Compound 10, N-(4-(2,4-Dimethylphenyl)thiazol-2-yl)benzenesulfonamide], the pIC50 in series [1] was 4.96. For the same compound, the “Cytotoxicity (Survival at 1 μM)” value in series [2] is given as 137.4%.

On to `Cc1ccc(-c2csc(=NS(=O)(=O)c3ccccc3)n2C)c(C)c1` [Compound 11, N-(4-(2,4-Dimethylphenyl)-3-methylthiazol-2(3H)-ylidene)benzenesulfonamide], for which the pIC50 in series [1] is 5.84. For the same compound, the “Cytotoxicity (Survival at 1 μM)” value in series [2] was determined as 92.4%.

On to `Cc1ccc(-c2csc(N(C)S(=O)(=O)c3ccccc3)n2)c(C)c1` [Compound 12, N-(4-(2,4-Dimethylphenyl)thiazol-2-yl)-N-methylbenzenesulfonamide], for which, in series [1], the pIC50 is below 4.60. For the same compound, the “Cytotoxicity (Survival at 1 μM)” value in series [2] was 116.7%.

Take `Cc1csc(NC(=O)c2ccccc2)n1` [Compound 14a, N-(4-Methylthiazol-2-yl)benzamide]: in series [1], the pIC50 is 4.92. Besides, the “Cytotoxicity (Survival at 1 μM)” value in series [2] was 103.1%.

`O=C(Nc1nc(-c2ccccc2Cl)cs1)c1ccccc1` [Compound 14b, N-(4-(2-Chlorophenyl)thiazol-2-yl)benzamide]: in series [1], the pIC50 is 4.82. In series [2], the “Cytotoxicity (Survival at 1 μM)” value was found to be 102.4%.

For `O=C(Nc1nc(-c2cccc(Br)c2)cs1)c1ccccc1` [Compound 14c, N-(4-(3-Bromophenyl)thiazol-2-yl)benzamide], in series [1], the pIC50 is 5.00. Moreover, in series [2], the “Cytotoxicity (Survival at 1 μM)” value is reported as 78.0%.

Take `O=C(Nc1nc(-c2ccc(Br)cc2)cs1)c1ccccc1` [Compound 14d, N-(4-(4-Bromophenyl)thiazol-2-yl)benzamide]: the pIC50 in series [1] was 5.02. The “Cytotoxicity (Survival at 1 μM)” value in series [2] was determined as 82.2%.

On to `O=C(Nc1nc(-c2cccc(Cl)c2)cs1)c1ccccc1` [Compound 14e, N-(4-(3-Chlorophenyl)thiazol-2-yl)benzamide], for which the pIC50 in series [1] was 6.91. The “Cytotoxicity (Survival at 1 μM)” value in series [2] is given as 71.4%.

Take `O=C(Nc1nc(-c2cc(C(F)(F)F)cc(C(F)(F)F)c2)cs1)c1ccccc1` [Compound 14f, N-(4-(3,5-Bis(trifluoromethyl)phenyl)thiazol-2-yl)benzamide]: the pIC50 in series [1] is 6.47. The “Cytotoxicity (Survival at 1 μM)” value in series [2] came to 85.8%.

Take `COc1cc(-c2csc(NC(=O)c3ccccc3)n2)cc(OC)c1OC` [Compound 14g, N-(4-(3,4,5-Trimethoxyphenyl)thiazol-2-yl)benzamide]: the pIC50 in series [1] is below 4.30. Further, in series [2], the “Cytotoxicity (Survival at 1 μM)” value was 95.0%.

Consider `Cc1sc(NC(=O)c2ccccc2)nc1-c1ccccc1` [Compound 14h, N-(5-Methyl-4-phenylthiazol-2-yl)benzamide], for which the pIC50 in series [1] was below 4.60. Moreover, the “Cytotoxicity (Survival at 1 μM)” value in series [2] is 99.0%.

As for `Cc1sc(NC(=O)c2ccccc2)nc1-c1ccc(F)cc1` [Compound 14i, N-(4-(4-Fluorophenyl)-5-methylthiazol-2-yl)benzamide], in series [1], the pIC50 was 5.04. In addition, the “Cytotoxicity (Survival at 1 μM)” value in series [2] stood at 53.7%.

`Cc1ccc(-c2cnc(NC(=O)c3ccccc3)s2)cc1` [Compound 14j, N-(5-(p-Tolyl)thiazol-2-yl)benzamide]: the pIC50 in series [1] was 6.51. The “Cytotoxicity (Survival at 1 μM)” value in series [2] is given as 55.6%.

Turning to `COc1ccc(C(=O)Nc2nc(-c3cc(OC)c(OC)c(OC)c3)cs2)cc1` [Compound 14k, 4-Methoxy-N-(4-(3,4,5-trimethoxyphenyl)thiazol-2-yl)benzamide], the pIC50 in series [1] was below 4.60. Also, the “Cytotoxicity (Survival at 1 μM)” value in series [2] stood at 93.8%.

With `COc1cc(-c2csc(NC(=O)c3ccc(Cl)cc3)n2)cc(OC)c1OC` [Compound 14l, 4-Chloro-N-(4-(3,4,5-trimethoxyphenyl)thiazol-2-yl)benzamide], the pIC50 in series [1] is below 4.60. Moreover, the “Cytotoxicity (Survival at 1 μM)” value in series [2] turned out to be 85.6%.

For the compound `COc1ccc(C(=O)Nc2nc(-c3cc(OC)c(OC)c(OC)c3)cs2)cc1OC` [Compound 14m, 3,4-Dimethoxy-N-(4-(3,4,5-trimethoxyphenyl)thiazol-2-yl)benzamide], in series [1], the pIC50 was below 4.60. Also, in series [2], the “Cytotoxicity (Survival at 1 μM)” value was found to be 87.3%.

`COc1ccc(C(=O)Nc2nc(-c3cc(OC)c(OC)c(OC)c3)cs2)c(OC)c1` [Compound 14n, 2,4-Dimethoxy-N-(4-(3,4,5-trimethoxyphenyl)thiazol-2-yl)benzamide]: the pIC50 in series [1] is below 4.30. In addition, in series [2], the “Cytotoxicity (Survival at 1 μM)” value is given as 93.8%.

Regarding `COc1cc(C(=O)Nc2nc(-c3cc(OC)c(OC)c(OC)c3)cs2)cc(OC)c1OC` [Compound 14o, 3,4,5-Trimethoxy-N-(4-(3,4,5-trimethoxyphenyl)thiazol-2-yl)benzamide], the pIC50 in series [1] was 5.99. Further, the “Cytotoxicity (Survival at 1 μM)” value in series [2] was 77.6%.

Consider `COc1cc(-c2csc(NC(=O)c3cccc(OC)c3OC)n2)cc(OC)c1OC` [Compound 14p, 2,3-Dimethoxy-N-(4-(3,4,5-trimethoxyphenyl)thiazol-2-yl)benzamide], for which the pIC50 in series [1] is 4.82. Also, in series [2], the “Cytotoxicity (Survival at 1 μM)” value came to 90.1%.

For the compound `COc1ccccc1C(=O)Nc1nc(-c2cc(OC)c(OC)c(OC)c2)cs1` [Compound 14q, 2-Methoxy-N-(4-(3,4,5-trimethoxyphenyl)thiazol-2-yl)benzamide], the pIC50 in series [1] is 5.07. The “Cytotoxicity (Survival at 1 μM)” value in series [2] was 103.7%.

As to `COc1cccc(C(=O)Nc2nc(-c3cc(OC)c(OC)c(OC)c3)cs2)c1` [Compound 14r, 3-Methoxy-N-(4-(3,4,5-trimethoxyphenyl)thiazol-2-yl)benzamide], the pIC50 in series [1] was 4.85. Moreover, in series [2], the “Cytotoxicity (Survival at 1 μM)” value is 92.6%.

As for `Cc1csc(=NC(=O)c2ccccc2)n1C` [Compound 15a, N-(3,4-Dimethylthiazol-2(3H)-ylidene)benzamide], the pIC50 in series [1] is 4.82. The “Cytotoxicity (Survival at 1 μM)” value in series [2] is listed as 102.6%.

Take `Cn1c(-c2ccccc2Cl)csc1=NC(=O)c1ccccc1` [Compound 15b, N-(4-(2-Chlorophenyl)-3-methylthiazol-2(3H)-ylidene)benzamide]: the pIC50 in series [1] is 6.57. Also, in series [2], the “Cytotoxicity (Survival at 1 μM)” value came to 72.2%.

As to `Cn1c(-c2cccc(Br)c2)csc1=NC(=O)c1ccccc1` [Compound 15c, N-(4-(3-Bromophenyl)-3-methylthiazol-2(3H)-ylidene)benzamide], the pIC50 in series [1] was 6.52. Moreover, the “Cytotoxicity (Survival at 1 μM)” value in series [2] is 94.4%.

In the case of `Cn1c(-c2ccc(Br)cc2)csc1=NC(=O)c1ccccc1` [Compound 15d, N-(4-(4-Bromophenyl)-3-methylthiazol-2(3H)-ylidene)benzamide], the pIC50 in series [1] was 6.90. For the same compound, in series [2], the “Cytotoxicity (Survival at 1 μM)” value turned out to be 59.3%.
